Experimental data: US7968713B2, “Method of synthesizing quinoxaline derivative by microwave irradiation” (Nihon University, priority 2005, dated 2011)

Tests used:
[1] = tested on: HepG2 cells; experiment: Hypoxic selective cytotoxicity test with respect to HepG2 cells (colony forming ratio); format: cell-based, human; conditions: 20 μM exposed for six hours, cultivated for seven days; for Activity (Surviving fraction) (%) hypoxia: hypoxic state (hypoxia); for Activity (Surviving fraction) (%) noroxia: usual oxygen state (noroxia)
Experimental: (Hypoxic Selective Cytotoxicity Test with Respect to HepG2 Cells)
A cytotoxicity reinforcing effect on a hypoxic condition was tested using HepG2 cells which were human liver cancer cells. In a usual oxygen state (noroxia) and a hypoxic state (hypoxia), 20 μM of each quinoxaline 1,4-dioxide derivative shown in Table 1 (Compounds 1 to 8 including R1 to R6 shown in Table 1 in the above general formula (3)) was exposed for six hours, and cultivated for seven days, and then colony forming ratios were compared. It is to be noted that in Table 1, “Ph-NO2” is a group in which a nitro group is introduced into a para position of a benzoyl group.

For COc1cc2c(cc1OC)[n+]([O-])c(-c1ccccc1)c(C(=O)c1ccccc1)[n+]2[O-] [Example 3, 2-benzoyl-6,7-dimethoxy-3-phenylquinoxaline 1,4-dioxide], the melting point was 286 °C (dec.).
Work on O=C(c1ccccc1)c1c(-c2ccccc2)[n+]([O-])c2cc(F)c(F)cc2[n+]1[O-] [Example 2, 2-benzoyl-6,7-difluoro-3-phenylquinoxaline 1,4-dioxide] yielded a melting point of 249 to 251 °C.
In the case of Cc1c(C(=O)c2ccc([N+](=O)[O-])cc2)[n+]([O-])c2cc(Cl)c(Cl)cc2[n+]1[O-] [Compound 7, 6,7-dichloro-3-methyl-2-(4′-nitrobenzoyl)-quinoxaline 1,4-dioxide], the “Activity (Surviving fraction) (%) hypoxia” value [1] is reported as 6%, the “Activity (Surviving fraction) (%) noroxia” value [1] is reported as 73% and the melting point is reported as 215 to 217 °C.
In the case of Cc1c(C(=O)c2ccc([N+](=O)[O-])cc2)[n+]([O-])c2cc(F)c(F)cc2[n+]1[O-] [Compound 8, 6,7-difluoro-3-methyl-2-(41-nitrobenzoyl)-quinoxaline 1,4-dioxide], the “Activity (Surviving fraction) (%) hypoxia” value [1] is reported as 1%, the “Activity (Surviving fraction) (%) noroxia” value [1] is reported as 44% and the melting point is reported as 232 to 233 °C.
With COc1cc2c(cc1OC)[n+]([O-])c(C(C)=O)c(C)[n+]2[O-] [Example 5, 2-acetyl-6,7-dimethoxy-3-methylquinoxaline 1,4-dioxide] the melting point was 254 °C.
